Test: molar heat capacity at constant volume; wn = mass fraction of the nth substance listed
Conditions: Liquid, Vacuum adiabatic calorimetry, w2 = 0.4981

FC(F)C(F)(F)F [pentafluoroethane] + FCF
Conditions | molar heat capacity at constant volume [J/K/mol]
357.15 K, 9042 kPa | 82.22
357.15 K, 9048 kPa | 82.43
357.15 K, 16243 kPa | 68.41
357.15 K, 16254 kPa | 69.93
357.15 K, 16277 kPa | 69.42
358.15 K, 9284 kPa | 81.71
358.15 K, 9290 kPa | 83.6
358.15 K, 16617 kPa | 69.79
358.15 K, 16628 kPa | 70.73
358.15 K, 16652 kPa | 69.13
359.15 K, 9527 kPa | 82.29
359.15 K, 9532 kPa | 83.09
359.15 K, 16990 kPa | 69.86
359.15 K, 17003 kPa | 71.24
359.15 K, 17027 kPa | 67.9
360.15 K, 9770 kPa | 82.07
360.15 K, 9775 kPa | 82.29
360.15 K, 17365 kPa | 69.42
360.15 K, 17377 kPa | 68.55
360.15 K, 17401 kPa | 69.64
361.15 K, 10013 kPa | 81.2
361.15 K, 10019 kPa | 82.73
361.15 K, 17739 kPa | 70.08
361.15 K, 17752 kPa | 71.46
361.15 K, 17776 kPa | 68.48
362.15 K, 10256 kPa | 82.65
362.15 K, 10262 kPa | 83.31
362.15 K, 18113 kPa | 69.42
362.15 K, 18127 kPa | 71.17
362.15 K, 18151 kPa | 69.06
363.15 K, 10501 kPa | 80.69
363.15 K, 10506 kPa | 82.22
363.15 K, 18487 kPa | 70.59
363.15 K, 18501 kPa | 69.57
363.15 K, 18526 kPa | 69.79
364.15 K, 10745 kPa | 81.78
364.15 K, 10751 kPa | 81.56
364.15 K, 18862 kPa | 69.2
364.15 K, 18876 kPa | 70.8
364.15 K, 18899 kPa | 68.91
365.15 K, 10990 kPa | 81.49
365.15 K, 10996 kPa | 82.29
365.15 K, 19236 kPa | 69.57
365.15 K, 19250 kPa | 69.79
365.15 K, 19274 kPa | 70.08
366.15 K, 11235 kPa | 80.04
366.15 K, 11241 kPa | 81.78
366.15 K, 19610 kPa | 70
366.15 K, 19625 kPa | 70.22
366.15 K, 19649 kPa | 68.99
367.15 K, 11480 kPa | 81.49
367.15 K, 11486 kPa | 81.93
367.15 K, 19985 kPa | 69.06
367.15 K, 20000 kPa | 69.86
367.15 K, 20025 kPa | 68.48
368.15 K, 11726 kPa | 81.42
368.15 K, 11732 kPa | 82.07
368.15 K, 20360 kPa | 69.35
368.15 K, 20375 kPa | 69.71
368.15 K, 20400 kPa | 68.77
369.15 K, 11972 kPa | 79.89
369.15 K, 11979 kPa | 82.73
369.15 K, 20734 kPa | 69.42
369.15 K, 20750 kPa | 70
369.15 K, 20776 kPa | 68.7
370.15 K, 12219 kPa | 80.69
370.15 K, 12225 kPa | 80.76
370.15 K, 21109 kPa | 70.8
370.15 K, 21125 kPa | 69.35
370.15 K, 21150 kPa | 69.2
371.15 K, 12465 kPa | 80.25
371.15 K, 12472 kPa | 82.07
371.15 K, 21484 kPa | 70.3
371.15 K, 21500 kPa | 71.82
371.15 K, 21525 kPa | 68.55
372.15 K, 12712 kPa | 80.11
372.15 K, 12719 kPa | 81.78
372.15 K, 21859 kPa | 70.44
372.15 K, 21875 kPa | 69.64
372.15 K, 21901 kPa | 69.42
373.15 K, 12959 kPa | 80.91
373.15 K, 12966 kPa | 82.43
373.15 K, 22234 kPa | 69.86
373.15 K, 22250 kPa | 71.17
373.15 K, 22277 kPa | 69.57
374.15 K, 13207 kPa | 80.11
374.15 K, 13213 kPa | 81.71
374.15 K, 22609 kPa | 70.59
374.15 K, 22625 kPa | 70.37
374.15 K, 22654 kPa | 69.2
375.15 K, 13454 kPa | 80.04
375.15 K, 13461 kPa | 81.85
375.15 K, 22984 kPa | 71.68
375.15 K, 23000 kPa | 72.33
375.15 K, 23029 kPa | 70.15
376.15 K, 13702 kPa | 80.76
376.15 K, 13709 kPa | 82.87
376.15 K, 23359 kPa | 71.6
376.15 K, 23375 kPa | 71.02
376.15 K, 23406 kPa | 70.08
377.15 K, 13950 kPa | 82.14
377.15 K, 13957 kPa | 81.34
377.15 K, 23734 kPa | 71.24
377.15 K, 23750 kPa | 71.6
377.15 K, 23780 kPa | 70.88
378.15 K, 14198 kPa | 80.25
378.15 K, 14205 kPa | 80.18
378.15 K, 24109 kPa | 72.04
378.15 K, 24125 kPa | 71.82
378.15 K, 24155 kPa | 70.51
379.15 K, 14447 kPa | 81.2
379.15 K, 14454 kPa | 81.85
379.15 K, 24484 kPa | 72.04
379.15 K, 24500 kPa | 70.95
379.15 K, 24531 kPa | 70.22
380.15 K, 14696 kPa | 80.47
380.15 K, 14702 kPa | 80.84
380.15 K, 24858 kPa | 72.11
380.15 K, 24875 kPa | 71.6
380.15 K, 24906 kPa | 70.88
381.15 K, 14944 kPa | 80.54
381.15 K, 14951 kPa | 81.93
381.15 K, 25233 kPa | 72.33
381.15 K, 25250 kPa | 71.6
381.15 K, 25282 kPa | 68.91
382.15 K, 15194 kPa | 81.2
382.15 K, 15200 kPa | 81.2
382.15 K, 25608 kPa | 70.51
382.15 K, 25625 kPa | 71.75
382.15 K, 25657 kPa | 69.64
383.15 K, 15443 kPa | 80.18
383.15 K, 15449 kPa | 81.13
383.15 K, 25983 kPa | 72.33
383.15 K, 26000 kPa | 71.75
383.15 K, 26033 kPa | 69.93
384.15 K, 15692 kPa | 82.29
384.15 K, 15699 kPa | 80.62
384.15 K, 26358 kPa | 72.69
384.15 K, 26375 kPa | 72.84
384.15 K, 26408 kPa | 70
385.15 K, 15942 kPa | 79.6
385.15 K, 15948 kPa | 82.58
385.15 K, 26733 kPa | 72.55
385.15 K, 26750 kPa | 72.4
385.15 K, 26784 kPa | 69.28
386.15 K, 16192 kPa | 81.2
386.15 K, 16198 kPa | 83.09
386.15 K, 27107 kPa | 72.4
386.15 K, 27125 kPa | 72.77
386.15 K, 27159 kPa | 68.48
387.15 K, 16442 kPa | 79.31
387.15 K, 16448 kPa | 81.34
387.15 K, 27482 kPa | 73.57
387.15 K, 27500 kPa | 73.57
387.15 K, 27533 kPa | 70.66
388.15 K, 16692 kPa | 80.62
388.15 K, 16698 kPa | 82.51
388.15 K, 27856 kPa | 73.71
388.15 K, 27874 kPa | 73.71
388.15 K, 27907 kPa | 69.06
389.15 K, 16942 kPa | 80.76
389.15 K, 16948 kPa | 82.07
389.15 K, 28231 kPa | 74.08
389.15 K, 28249 kPa | 73.86
389.15 K, 28282 kPa | 70.22
390.15 K, 17192 kPa | 80.84
390.15 K, 17198 kPa | 83.74
390.15 K, 28605 kPa | 74.08
390.15 K, 28624 kPa | 74.73
390.15 K, 28657 kPa | 70.3
391.15 K, 17442 kPa | 81.05
391.15 K, 17448 kPa | 83.67
391.15 K, 28979 kPa | 73.78
391.15 K, 28998 kPa | 72.77
391.15 K, 29032 kPa | 70.44
392.15 K, 17692 kPa | 81.05
392.15 K, 17698 kPa | 81.34
392.15 K, 29354 kPa | 72.77
392.15 K, 29373 kPa | 71.31
392.15 K, 29407 kPa | 68.84
393.15 K, 17943 kPa | 79.38
393.15 K, 17949 kPa | 81.27
393.15 K, 29728 kPa | 74
393.15 K, 29782 kPa | 72.19
394.15 K, 18193 kPa | 82
394.15 K, 18199 kPa | 80.84
395.15 K, 18444 kPa | 80.18
395.15 K, 18450 kPa | 83.89
396.15 K, 18701 kPa | 80.62
397.15 K, 18951 kPa | 82.36

From the NIST ThermoML archive (doi:10.1007/s10765-010-0766-0)
